Details: biotin tag reacted with fluorescently-labelled avidin
Method: In a separate experiment, two synthetic peptides were produced, and covalently attached to a biotin molecule. The sequences were:
The synthetic peptides were assessed for translocation by reacting the biotin tag with fluorescently-labelled avidin.

| Substance | Translocation |
| --- | --- |
| Biotin-spacer-TPKKAKKPAAAAGASSAKSP-amide [SEQ ID NO. 11] | Translocation was observed |
| Biotin-spacer-TPKKASSPAAAAGAKKAKSP-amide [SEQ ID NO. 10] | no translocation was observed |
